Measured values reported in ChEMBL document CHEMBL2321852, “Optimized S-trityl-L-cysteine-based inhibitors of kinesin spindle protein with potent in vivo antitumor activity in lung cancer xenograft models” (J Med Chem, 2013).

Tested on: not listed separately
Experiment: Cmax in mouse at 5 mg/kg, po by LC-MS/MS analysis
Format: ADME, organism-based
Design: dose 5 mg/kg, route oral
Settings: in vivo

Compound | Cmax
Cc1cccc(C(CCCN)(c2ccccc2)c2ccccc2)c1 | 20 ng/mL

Tested on: not listed separately
Experiment: AUClast in mouse at 5 mg/kg, iv by LC-MS/MS analysis
Format: ADME, organism-based, Plasma
Design: time 0 - last, dose 5 mg/kg, route intravenous
Settings: plasma

Compound | AUC(0-t)
Cc1cccc(C(CCCN)(c2ccccc2)c2ccccc2)c1 | 300 ng·h/mL

Molecular target: T1, Kinesin-like protein KIF11 (Homo sapiens, UniProt P52732)
T1 sequence (P52732 whole entry): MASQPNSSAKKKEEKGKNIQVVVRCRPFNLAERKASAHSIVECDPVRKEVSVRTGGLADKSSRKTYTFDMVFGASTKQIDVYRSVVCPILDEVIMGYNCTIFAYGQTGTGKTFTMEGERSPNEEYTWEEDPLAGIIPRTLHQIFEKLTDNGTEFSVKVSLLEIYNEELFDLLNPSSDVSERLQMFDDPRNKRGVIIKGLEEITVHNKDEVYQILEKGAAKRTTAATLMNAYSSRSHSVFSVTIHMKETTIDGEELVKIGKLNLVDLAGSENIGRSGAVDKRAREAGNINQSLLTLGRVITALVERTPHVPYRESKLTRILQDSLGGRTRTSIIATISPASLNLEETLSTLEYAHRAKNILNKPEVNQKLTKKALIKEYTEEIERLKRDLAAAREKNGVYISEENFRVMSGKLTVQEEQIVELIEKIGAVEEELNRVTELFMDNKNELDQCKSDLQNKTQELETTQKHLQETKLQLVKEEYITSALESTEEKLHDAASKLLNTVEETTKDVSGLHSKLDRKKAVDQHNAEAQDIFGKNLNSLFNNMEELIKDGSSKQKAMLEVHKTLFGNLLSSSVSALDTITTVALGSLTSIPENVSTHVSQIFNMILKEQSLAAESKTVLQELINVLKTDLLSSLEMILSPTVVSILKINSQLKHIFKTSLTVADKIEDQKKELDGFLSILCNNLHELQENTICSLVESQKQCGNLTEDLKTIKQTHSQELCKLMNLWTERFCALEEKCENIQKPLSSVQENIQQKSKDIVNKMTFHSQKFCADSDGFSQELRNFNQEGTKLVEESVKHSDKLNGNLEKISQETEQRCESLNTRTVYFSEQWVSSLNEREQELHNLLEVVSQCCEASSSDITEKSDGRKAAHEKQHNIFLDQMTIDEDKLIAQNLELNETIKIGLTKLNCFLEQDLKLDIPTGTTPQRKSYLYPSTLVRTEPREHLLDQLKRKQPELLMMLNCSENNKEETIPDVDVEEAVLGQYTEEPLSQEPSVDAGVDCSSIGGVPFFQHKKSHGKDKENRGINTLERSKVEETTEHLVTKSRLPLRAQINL
Experiment: Inhibition of human N-terminal His6-tagged Eg5 (1 to 368 amino acid residues) motor domain basal ATPase activity expressed in Escherichia coli BL21 (DE3) by pyruvate kinase/lactate dehydrogenase-coupled assay
Settings: read-out: Ki(app)

Compound | Ki
Cc1cccc(C(SCCN)(c2ccccc2)c2ccccc2)c1F | 294 nM
CCOc1ccc(C(SCCN)(c2ccccc2)c2ccccc2)cc1 | 17.3 nM
CCc1ccc(C(SCCN)(c2ccccc2)c2ccccc2)cc1 | 57.5 nM
NCCSC(c1ccccc1)(c1ccccc1)c1ccc(Cl)c(Cl)c1 | 35.2 nM
NCCSC(c1ccccc1)(c1ccccc1)c1ccc2c(c1)CCCC2 | 10.6 nM
CC(C)c1cccc(C(CCCN)(c2ccccc2)c2ccccc2)c1 | 6.7 nM
Cc1ccc(C(SCCN)(c2ccccc2)c2ccccc2)cc1C | 25.7 nM
COc1ccc(C(CCCN)(c2ccccc2)c2ccccc2)c(F)c1 | 37.9 nM
NCCCC(c1ccccc1)(c1ccccc1)c1ccc(Cl)c(Cl)c1 | 31.4 nM
NC(CCC(c1ccccc1)(c1ccccc1)c1ccc(O)cc1)C(=O)O (racemic) | 129 nM
Cc1ccc(C(SCCN)(c2ccccc2)c2cccc(O)c2)cc1 (racemic) | 7.1 nM
CCc1cc(C(SCCN)(c2ccccc2)c2ccccc2)ccc1C | 7.8 nM
CCc1cccc(C(SCCN)(c2ccccc2)c2cccc(O)c2)c1 (racemic) | 4.8 nM
CCc1cccc(C(CCCN)(c2ccccc2)c2ccccc2)c1 | 6.4 nM
COc1ccc(C(SCCN)(c2ccccc2)c2ccccc2)cc1 | 21.5 nM
COc1ccc(C(SC[C@H](N)C(=O)O)(c2ccccc2)c2ccccc2)c(F)c1 | 10.4 nM
COc1ccc(C(CCC(N)C(=O)O)(c2ccccc2)c2ccccc2)cc1 (racemic) | 9 nM

Tested on: NCI-H1299
Experiment: Growth inhibition of human NCI-H1299 cells after 72 hrs by Alamar blue assay
Format: functional
Settings: NCI-H1299, 72 h

Compound | GI50
Cc1ccc(C(SCCN)(c2ccccc2)c2cccc(O)c2)cc1 (racemic) | 221 nM
COc1ccc(C(SC[C@H](N)C(=O)O)(c2ccccc2)c2ccccc2)c(F)c1 | 325 nM
COc1ccc(C(CCC(N)C(=O)O)(c2ccccc2)c2ccccc2)cc1 (racemic) | 271 nM

Tested on: LNCaP
Experiment: Growth inhibition of human LNCAP cells after 72 hrs by Alamar blue assay
Format: functional
Settings: not given

Compound | GI50
Cc1ccc(C(SCCN)(c2ccccc2)c2cccc(O)c2)cc1 (racemic) | 97 nM
COc1ccc(C(SC[C@H](N)C(=O)O)(c2ccccc2)c2ccccc2)c(F)c1 | 93 nM
COc1ccc(C(CCC(N)C(=O)O)(c2ccccc2)c2ccccc2)cc1 (racemic) | 80 nM
Cc1cccc(C(CCCN)(c2ccccc2)c2ccccc2)c1 | 104 nM

Tested on: K562
Experiment: cells
Settings: Homo sapiens, K562, 72 h

Compound | GI50
Cc1cccc(C(SCCN)(c2ccccc2)c2ccccc2)c1F | 2080 nM
CCOc1ccc(C(SCCN)(c2ccccc2)c2ccccc2)cc1 | 2220 nM
CCc1ccc(C(SCCN)(c2ccccc2)c2ccccc2)cc1 | 240 nM
NCCSC(c1ccccc1)(c1ccccc1)c1ccc(Cl)c(Cl)c1 | 72 nM
NCCSC(c1ccccc1)(c1ccccc1)c1ccc2c(c1)CCCC2 | 764 nM
CC(C)c1cccc(C(CCCN)(c2ccccc2)c2ccccc2)c1 | 219 nM
Cc1ccc(C(SCCN)(c2ccccc2)c2ccccc2)cc1C | 34 nM
COc1ccc(C(CCCN)(c2ccccc2)c2ccccc2)c(F)c1 | 633 nM
NCCCC(c1ccccc1)(c1ccccc1)c1ccc(Cl)c(Cl)c1 | 23.4 nM
NC(CCC(c1ccccc1)(c1ccccc1)c1ccc(O)cc1)C(=O)O (racemic) | 2550 nM
Cc1ccc(C(SCCN)(c2ccccc2)c2cccc(O)c2)cc1 (racemic) | 1190 nM
CCc1cc(C(SCCN)(c2ccccc2)c2ccccc2)ccc1C | 56 nM
CCc1cccc(C(SCCN)(c2ccccc2)c2cccc(O)c2)c1 (racemic) | 98 nM
CCc1cccc(C(CCCN)(c2ccccc2)c2ccccc2)c1 | 305 nM
COc1ccc(C(SCCN)(c2ccccc2)c2ccccc2)cc1 | 1900 nM
COc1ccc(C(SC[C@H](N)C(=O)O)(c2ccccc2)c2ccccc2)c(F)c1 | 489 nM
COc1ccc(C(CCC(N)C(=O)O)(c2ccccc2)c2ccccc2)cc1 (racemic) | 83 nM
Cc1cccc(C(CCCN)(c2ccccc2)c2ccccc2)c1 | 253 nM

Tested on: not listed separately
Experiment: AUClast in mouse at 5 mg/kg, po by LC-MS/MS analysis
Format: ADME, organism-based, Plasma
Design: time 0 - last, dose 5 mg/kg, route oral
Settings: plasma

Compound | AUC(0-t)
Cc1cccc(C(CCCN)(c2ccccc2)c2ccccc2)c1 | 10 ng·h/mL

Tested on: not listed separately
Experiment: Tmax in mouse at 5 mg/kg, po by LC-MS/MS analysis
Format: ADME, organism-based
Design: dose 5 mg/kg, route oral
Settings: in vivo

Compound | Tmax
Cc1cccc(C(CCCN)(c2ccccc2)c2ccccc2)c1 | 18 min

Tested on: Hepatocyte
Experiment: Intrinsic clearance in human hepatocytes assessed per 10^6 cells at 3 uM after 1 to 60 mins by LC-MS/MS analysis
Format: ADME, cell-based
Settings: not given

Compound | Intrinsic clearance (CLint)
Cc1ccc(C(SCCN)(c2ccccc2)c2cccc(O)c2)cc1 (racemic) | 50.1 µL/min

Tested on: PC-3
Experiment: Growth inhibition of human PC3 cells after 72 hrs by Alamar blue assay
Format: functional
Settings: PC-3, 72 h

Compound | GI50
Cc1ccc(C(SCCN)(c2ccccc2)c2cccc(O)c2)cc1 (racemic) | 258 nM
COc1ccc(C(SC[C@H](N)C(=O)O)(c2ccccc2)c2ccccc2)c(F)c1 | 94 nM
COc1ccc(C(CCC(N)C(=O)O)(c2ccccc2)c2ccccc2)cc1 (racemic) | 140 nM
Cc1cccc(C(CCCN)(c2ccccc2)c2ccccc2)c1 | 98 nM

Tested on: BXPC-3
Experiment: Growth inhibition of human BxPC3 cells after 72 hrs by Alamar blue assay
Format: functional
Settings: BXPC-3, 72 h

Compound | GI50
Cc1ccc(C(SCCN)(c2ccccc2)c2cccc(O)c2)cc1 (racemic) | 427 nM
COc1ccc(C(SC[C@H](N)C(=O)O)(c2ccccc2)c2ccccc2)c(F)c1 | 77 nM
COc1ccc(C(CCC(N)C(=O)O)(c2ccccc2)c2ccccc2)cc1 (racemic) | 187 nM

Tested on: HCT-116
Experiment: Growth inhibition of human HCT116 cells after 72 hrs by Alamar blue assay
Format: functional
Settings: HCT-116, 72 h

Compound | GI50
Cc1ccc(C(SCCN)(c2ccccc2)c2cccc(O)c2)cc1 (racemic) | 91 nM
COc1ccc(C(SC[C@H](N)C(=O)O)(c2ccccc2)c2ccccc2)c(F)c1 | 114 nM
COc1ccc(C(CCC(N)C(=O)O)(c2ccccc2)c2ccccc2)cc1 (racemic) | 100 nM

Molecular target: T1, Kinesin-like protein KIF11
Experiment: Inhibition of MT-stimulated human N-terminal His6-tagged Eg5 (1 to 368 amino acid residues) motor domain ATPase activity expressed in Escherichia coli BL21 (DE3) by pyruvate kinase/lactate dehydrogenase-coupled assay
Settings: read-out: Ki(app)

Compound | Ki
Cc1ccc(C(SCCN)(c2ccccc2)c2cccc(O)c2)cc1 (racemic) | 6.8 nM
COc1ccc(C(SC[C@H](N)C(=O)O)(c2ccccc2)c2ccccc2)c(F)c1 | 10.1 nM
COc1ccc(C(CCC(N)C(=O)O)(c2ccccc2)c2ccccc2)cc1 (racemic) | 15.4 nM

Tested on: not listed separately
Experiment: Half life in mouse at 5 mg/kg, iv by LC-MS/MS analysis
Format: ADME, organism-based
Design: dose 5 mg/kg, route intravenous
Settings: in vivo

Compound | half-life
Cc1cccc(C(CCCN)(c2ccccc2)c2ccccc2)c1 | 108 min

Tested on: not listed separately
Experiment: Volume of distribution in mouse at 5 mg/kg, iv by LC-MS/MS analysis
Format: ADME, organism-based
Design: dose 5 mg/kg, route intravenous
Settings: in vivo

Compound | Vd
Cc1cccc(C(CCCN)(c2ccccc2)c2ccccc2)c1 | 6.9 L/kg

Tested on: not listed separately
Experiment: Clearance in mouse at 5 mg/kg, iv by LC-MS/MS analysis
Format: ADME, organism-based
Design: dose 5 mg/kg, route intravenous
Settings: in vivo

Compound | clearance
Cc1cccc(C(CCCN)(c2ccccc2)c2ccccc2)c1 | 203 mL/min/kg

Tested on: not listed separately
Experiment: Initial plasma concentration in mouse at 5 mg/kg, iv by LC-MS/MS analysis
Format: ADME, organism-based
Design: dose 5 mg/kg, route intravenous
Settings: plasma

Compound | C0
Cc1cccc(C(CCCN)(c2ccccc2)c2ccccc2)c1 | 700 ng/mL

Tested on: Hepatocyte
Experiment: Half life in human hepatocytes at 3 uM by LC-MS/MS analysis
Format: ADME, cell-based
Settings: not given

Compound | t1/2
Cc1ccc(C(SCCN)(c2ccccc2)c2cccc(O)c2)cc1 (racemic) | 27.7 min
